Experiments:
[1] = Stability of the carbamate linkage in water and HeLa cell lysate (HPLC); format: in vitro ADME; settings: water or HeLa cell lysate, 24 h incubation at 37° C.
Protocol: To investigate the stability of the carbamate linker in cellular environment the compound 15, nitropiperonylmethyl fused via a carbamate moiety to guanosine, was studied in water and cell lysate. The cell lysate was produced by ultrasonication of HeLa cells (5*10^6 cells) in 400 μL 1×PBS buffer. The compound 15, NPOM-guanosine, suspended in water or cell lysate after 24 h incubation at 37° C. was analysed by HPLC-analysis as described above.
As can be taken from the FIG. 8, the compound 15 was stable under these conditions.

[2] = Irradiation of caged nucleosides, conversion estimated by HPLC; format: physicochemical; settings: 500 μM in water/acetone/acetonitrile; 405 nm 20-60 s or 365 nm 5-20 s; LED 3 W
Protocol: Conversions from caged compounds to uncaged compounds were estimated by integrating the peaks of a UV-spectrum that resulted from the HPLC analysis (Agilent infinity 1260).
When irradiating isolated N2-modified compounds, a final volume of 10 μL in double distilled water was irradiated using a LED (λmax=365 nm/405 nm/420 nm) and then analyzed by RP-HPLC.
A 500 μM solution of the compound 15, nitropiperonylmethyl fused via a carbamate moiety to guanosine (denoted “NPOM guanosine” or “caged guanosine”), in water/acetone/acetonitrile was irradiated in a 10 μL volume with either 405 nm for 20 s, 40 s or 60 s or with 365 nm for 5 s, 10 s or 20 s, respectively, using a LED power (input 3W and output 147 mW/cm^2). HPLC analysis was performed as described above.
Samples of the adenosine fused via a carbamate moiety to 7-(diethylamino)-4-(hydroxymethyl)-coumarin (DEACM) were irradiated with 450 nm. […] The peak at 21.1 min corresponds to the obtained compound and the peaks at 11.1 and 21.9 min correspond to the photo-cleavage products adenosine and DEACM-OH, respectively.

Reticulocyte Lysate = assay: In vitro translation of capped FLuc-mRNA and luminescence measurement; format: biochemical; settings: 30 seconds at 365 nm
Protocol: In vitro translation was performed using a eukaryotic cell free protein expression kit from Reticulocyte Lysate (Invitrogen). Experiments were performed in 12.5 μL total volume containing 20 ng of the corresponding FLuc-mRNAs, 50 μM L-methionine and 150 mM potassium acetate. Samples were mixed with 8.5 μL of the reticulocyte lysate and incubated for 90 min at 30° C. Afterwards, 2 μL of the respective translation mix were used in subsequent luminescence measurement. The translation efficiency of the reporter mRNAs was assessed in a luciferase assay using Beetle-juice Luciferase Assay Firefly (pjk). Luciferase activity was determined by adding 50 μL freshly prepared substrate solution to the translation mixture. Luminescence was monitored using a Tecan Infinite® m1000pro microplate reader with an acquisition time of 3 s (duration of signal acquisition).
The photocleavable 5′-cap analog of formula (7) was used for in vitro transcription to make FLuc mRNA as described above. This was used for in vitro translation and Luminescence measurement as described above. The commercial non-modified cap analog denoted “m^7GpppG” (Jena Bioscience) was used as positive control. Samples were irradiated for 30 seconds. The ApppG capped mRNA, which is not recognized by the translation initiation factor served as negative control, which is substracted from the other samples as it represents background activity. The experiment was performed in quadruplicates. The FLuc-mRNA capped with the photocleavable 5′-cap analog of formula (7) is denoted “ONB”.
The in vitro translation assay and luminescence measurement was performed as described above using the photocleavable 5′-cap analog of formula (12). The capped mRNA was denoted “DMNB-m^7GpCH2ppG capped FLuc-mRNA”. Samples were irradiated for 30 seconds (365 nm) or 60 seconds (405 nm). The commercial non-modified cap analog denoted “m^7GpppG” (Jena Bioscience) was used as positive control and all other samples were normalized to it. The ApppG capped mRNA, which is not recognized by the translation initiation factor served as negative control, which is substracted from the other samples as it represents background activity. The experiment was performed in triplicates, except *DMNB-m7GpCH2ppG (365 nm) which was a single determination.
The in vitro translation assay in reticulocyte lysate and luminescence measurement was performed as described above using m^7GpppG capped FLuc-mRNA caged with the photocleavable 5′-cap analog of formulas (22) and (25) (denoted “DMNB m^7GpppG” and “NPOM m^7GpppG”). Samples were irradiated for 30 seconds at 365 nm. The ApppG capped mRNA, which is not recognized by the translation initiation factor served as negative control, which was substracted from the other samples as it represents background activity. The values were normalized to the non-irradiated sample with m^7GpppG capped mRNA (100%). The experiment was performed in triplicates.
The in vitro translation assay in reticulocyte lysate and luminescence measurement was performed as described above using m^7GpppG capped FLuc-mRNA with modified nucleotides m^5C and N^1methyl-pseudouridine caged with the photocleavable 5′-cap analog of formulas (22) and (25) (denoted “DMNB m^7GpppG mod” and “NPOM m^7GpppG mod”). Samples were irradiated for 30 seconds at 365 nm. The ApppG capped mRNA, which is not recognized by the translation initiation factor served as negative control, which was substracted from the other samples as it represents background activity. The values were normalized to the non-irradiated sample with m^7GpppG capped mRNA (100%). The experiment was performed in triplicates.

HeLa cells = assay: Translation and irradiation in HeLa cells of capped GLuc-mRNA (luminescence); format: cell-based; settings: HeLa; GLuc-mRNA with regular or modified nucleotides; 30 seconds (365 nm)
Protocol: HeLa cells were transferred to a 96 well plate 20 h prior transfection. 30.000 cells/well were cultivated in growth Media (MEM, 10% FCS, 1% glutamine, 1% Penicillin, 1% Streptomycine, […] non-essential aminoacids). For transfection the growth media was exchanged for MEM-media with 0.6 μL Metafectene® Pro (0.3 μL) and 100 ng mRNA was added per well. 6 h after transfection of the cells the media was exchange by MEM-media, followed by irradiation and another MEM-media exchange. After 24 h post transfection the supernatant in the wells was used for further luminescence measurements. Values of the ApppG capped mRNA represent cap independent translation and were therefore subtracted from the other values.
In cell translation and irradiation in cell culture of mammalian HeLa cells was performed as described above. GLuc mRNA capped with the photocleavable 5′-cap analog of formula (12) (“DMNB”) was used and the commercial non-modified cap analog denoted “m^7GpppG” (Jena Bioscience) was used as a control. HeLa cells were either transfected with the DMNB-m^7GpCH2ppG capped mRNA (irradiated and non-irradiated before transfection) or with the natural capped mRNA (irradiated and non-irradiated before transfection). Irradiation of the mRNA containing the natural cap was performed (5 V, 600 mA) with 365 nm for 30 seconds to evaluate the resulting influence on translational efficiency. DMNB-m^7GpCH2ppG capped mRNA was irradiated in the same way or with 405 nm for 60 seconds. The ApppG capped mRNA, which is not recognized by the translation initiation factor served as negative control, which is substracted from the other samples as it represents background activity. The values were normalized to the non-irradiated m^7GpppG capped sample (100%). The experiment was performed in triplicates.
The luminescence measurement of cell culture media after translation in cells transfected with modified and non-modified GLuc mRNA was repeated using irradiation with 365 nm/405 nm for different periods of time. HeLa cells were either transfected with the GLuc mRNA capped with the photocleavable 5′-cap analog of formula (12) denoted “DMNB-m^7GpCH2ppG capped mRNA” or with the natural m^7GpppG capped mRNA. Cells transfected with the natural capped mRNA were irradiated (5 V, 600 mA) with 365 nm/405 nm for 30 s or 60 s to evaluate the resulting influence on translational efficiency. Cells transfected with DMNB-m^7GpCH2ppG capped mRNA were irradiated in the same way. The ApppG capped mRNA, which is not recognized by the translation initiation factor served as negative control, which is substracted from the other samples as it represents background activity. The values were normalized to the non-irradiated cells with m^7GpppG capped mRNA (100%). The experiment was performed in triplicates.
Luminescence measurement of cell culture media after translation of transfected modified and non-modified GLuc mRNA in cells. HeLa cells were either transfected with the NPOM-m^7GpCH2ppG capped mRNA or with the natural m^7GpppG capped mRNA. Cells transfected with the natural capped mRNA were irradiated (5 V, 600 mA) with 365 nm/405 nm for different periods of time to evaluate the resulting influence on translational efficiency. Cells transfected with NPOM-m^7GpCH2ppG capped mRNA were irradiated in the same way. The ApppG capped mRNA, which is not recognized by the translation initiation factor served as negative control, which is substracted from the other samples as it represents background activity. […]

[3] = Irradiation of photocleavable 5′-cap analogs, LC-MS (triple quad); format: physicochemical; settings: 30 seconds, 365 nm (3 W)
Protocol: For determination of mass spectra, HPLC—triple-quadrupole mass spectrometry system was used. The system consists of Agilent 1260 Infinity II with dual λ absorbance detector (G7114A) HPLC part and Agilent Ultivo mass spectrometer with JetStream ion source (type of ESI). Column which was used: Agilent Poroshell 120 EC-C18 (3.0×150/2.7 μm). The polar compounds were tested by LC method (eluent 20 mM NH40Ac buffer (pH=6)/CH3CN, gradient 0-30%, column temperature=20° C.).
Samples of the photocleavable 5′-cap analog of formula (22) were irradiated for 30 seconds with 365 nm (3 W).

HEK293T cells = assay: In cell translation assay in HEK293T cells of capped GLuc-mRNA (luminescence); format: cell-based; settings: GLuc-mRNA with regular or modified nucleotides, 30 seconds (365 nm)
Source text: In cell translation assay in HeLa and HEK293T cells with m^7GpppG capped GLuc-mRNA caged with the photocleavable 5′-cap analog of formula (22) (denoted “DMNB m^7GpppG”) with either A) regular nucleotides or B) modified nucleotides m^5C and N^1methyl-pseudouridine. Samples were irradiated for 30 seconds (365 nm). The ApppG capped mRNA, which is not recognized by the translation initiation factor served as negative control, which is substracted from the other samples as it represents background activity. The values were normalized to the non-irradiated sample with m^7GpppG capped mRNA (100%). The experiment was performed in triplicates.

Structure (SMILES) | stability (HPLC) [1] | conversion of caged guanosine to guanosine upon irradiation [2] | in vitro translation (luminescence) after irradiation (Reticulocyte Lysate; capped FLuc-mRNA with modified nucleotides m^5C and N^1methyl-pseudouridine) | in vitro translation (luminescence) after irradiation (Reticulocyte Lysate; capped FLuc-mRNA, regular nucleotides) | translation in cells (luminescence) after irradiation (HeLa cells) | uncaging of the cap after irradiation (LC-MS) [3] | translation in cells (luminescence) after irradiation (HEK293T cells)
CC(OC(=O)Nc1nc2c(ncn2[C@@H]2O[C@H](CO)[C@@H](O)[C@H]2O)c(=O)[nH]1)c1cc2c(cc1[N+](=O)[O-])OCO2 (stereo partly shown) [compound 15, N^2-(1-(6-nitrobenzo[d][1,3]dioxol-5-yl)ethyl)oxycarbonylguanosine] | stable | cleaved by irradiation and that guanosine is regained without side products |  |  |  |  | 
COc1cc(COC(=O)Nc2nc3c(c(=O)[nH]2)[n+](C)cn3[C@@H]2O[C@H](COP(=O)(O)OP(=O)(O)OP(=O)(O)OC[C@H]3O[C@@H](n4cnc5c(=O)[nH]c(N)nc54)C(O)C3O)C(O)C2O)c([N+](=O)[O-])cc1OC (stereo partly shown) [compound 22, P1-(N^2-(4,5-Dimethoxy-2-nitrobenzyl)oxycarbonyl-7-methylguanosin-5′-yl)-P3-guanosin-5′-yl triphosphate] |  |  | marked increase of translation | marked increase of translation | marked increase of translation | partially uncaged | marked increase of translation

From patent publication US20250276994A1, “CAP ANALOG FOR THE 5'-END OF EUKARYOTIC MESSENGER RNAS” (WESTFÄLISCHE WILHELMS-UNIVERSITÄT, priority 2021, published 2025)
